In patent publication US10550105B2 (Ribon Therapeutics Inc., priority 2018, dated 2020):

Target: PARP7 (Homo sapiens (Human), UniProt Q7Z3E1)
Test: Enzymatic assay for inhibition of PARP7: TR-FRET displacement of biotinylated Probe A from the TIPARP active site
Format: binding
Conditions: Table A-1
Summary of the method: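 Percent inhibition derives from the ratio of 665 to 615 nm emission, which reports how much Probe A remains bound to TIPARP. Plates sat 30 min at 25° C before the time-resolved read (320 nm excitation).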

Chain of PARP7 (Q7Z3E1 whole entry): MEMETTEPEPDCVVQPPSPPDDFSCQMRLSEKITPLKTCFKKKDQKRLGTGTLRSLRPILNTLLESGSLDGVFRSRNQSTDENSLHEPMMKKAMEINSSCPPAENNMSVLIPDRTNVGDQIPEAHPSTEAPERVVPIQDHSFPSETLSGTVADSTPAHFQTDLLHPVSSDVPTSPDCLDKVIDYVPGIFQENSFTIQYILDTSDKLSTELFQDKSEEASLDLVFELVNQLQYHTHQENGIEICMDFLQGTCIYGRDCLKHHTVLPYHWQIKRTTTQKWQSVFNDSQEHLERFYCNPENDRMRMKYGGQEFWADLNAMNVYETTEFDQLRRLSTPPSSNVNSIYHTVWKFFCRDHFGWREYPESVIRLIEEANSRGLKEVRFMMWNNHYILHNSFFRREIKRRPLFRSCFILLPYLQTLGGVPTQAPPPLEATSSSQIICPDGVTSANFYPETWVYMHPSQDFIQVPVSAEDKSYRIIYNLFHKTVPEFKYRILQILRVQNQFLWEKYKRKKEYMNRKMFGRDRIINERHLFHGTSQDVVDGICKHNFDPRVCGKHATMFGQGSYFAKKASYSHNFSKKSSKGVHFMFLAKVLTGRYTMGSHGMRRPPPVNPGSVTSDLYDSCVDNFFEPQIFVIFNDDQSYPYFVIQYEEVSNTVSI

Structure (SMILES)	IC50 [nM]
CC[C@@H](COCCC(=O)N1CCN(c2ncc(C(F)(F)F)cn2)CC1)Oc1cn[nH]c(=O)c1Br [Example 657, (S)-4-Bromo-5-((1-(3-oxo-3-(4-(5-(trifluoromethyl)pyrimidin-2-yl)piperazin-1-yl)propoxy)butan-2-yl)oxy)pyridazin-3(2H)-one]	< 100
N#Cc1ccc(N2CCN(C(=O)c3ccnc(OC[C@@H]4c5ccccc5CN4c4cn[nH]c(=O)c4C(F)(F)F)c3)CC2)nc1 (single isomer, unassigned) [Example 36 Isomer B]	< 100
N#Cc1cccnc1N1CCN(C(=O)c2cccc(OC[C@@H]3c4ccccc4CN3c3cn[nH]c(=O)c3C(F)(F)F)c2)CC1 [Example 359, (S)-2-(4-(3-((2-(6-Oxo-5-(trifluoromethyl)-1,6-dihydropyridazin-4-yl)isoindolin-1-yl)methoxy)benzoyl)piperazin-1-yl)nicotinonitrile]	< 100
CC(=O)N1CCN(C(=O)c2cccc(OCC3c4ccccc4CN3c3cn[nH]c(=O)c3C(F)(F)F)c2)CC1 (centres unmarked) [Example 405, 5-(1-((3-(4-Acetylpiperazine-1-carbonyl)phenoxy)methyl)isoindolin-2-yl)-4-(trifluoromethyl)pyridazin-3(2H)-one]	< 100
O=c1[nH]ncc(N2Cc3cccc(CNc4ccncc4)c3C2)c1C(F)(F)F [Example 339, 5-(4-((Pyridin-4-ylamino)methyl)isoindolin-2-yl)-4-(trifluoromethyl)pyridazin-3(2H)-one]	< 100
CN1CCN(C(=O)CCOC[C@H]2c3ccccc3CN2c2cn[nH]c(=O)c2C(F)(F)F)CC1 [Example 422, (R)-5-(1-((3-(4-Methylpiperazin-1-yl)-3-oxopropoxy)methyl)isoindolin-2-yl)-4-(trifluoromethyl)pyridazin-3(2H)-one]	≥ 1000
N#Cc1ccc(N2C3CCC2CN(C(=O)CCOC[C@@H]2CCCN2c2cn[nH]c(=O)c2C(F)(F)F)C3)nc1 [Example 102, 6-[3-(3-[[(2S)-1-[6-oxo-5-(trifluoromethyl)-1,6-dihydropyridazin-4-yl]pyrrolidin-2-yl]methoxy]propanoyl)-3,8-diazabicyclo[3.2.1]octan-8-yl]pyridine-3-carbonitrile]	< 100
C[C@@H](COCCC(=O)N1CCN(c2ncccc2C(F)(F)F)CC1)Nc1cn[nH]c(=O)c1C(F)(F)F [Example 677, (S)-5-((1-(3-Oxo-3-(4-(3-(trifluoromethyl)pyridin-2-yl)piperazin-1-yl)propoxy)propan-2-yl)amino)-4-(trifluoromethyl)pyridazin-3(2H)-one]	< 100
N#Cc1ccc(N2CCN(C(=O)CCOC[C@H](Cc3ccccc3)Nc3cn[nH]c(=O)c3C(F)(F)F)CC2)nc1 [Example 515B]	< 100
Cc1ccc(N2CCN(C(=O)CCOC[C@H](C)Oc3cn[nH]c(=O)c3C(F)(F)F)CC2)nc1 [Example 682, (S)-5-((1-(3-(4-(5-Methylpyridin-2-yl)piperazin-1-yl)-3-oxopropoxy)propan-2-yl)oxy)-4-(trifluoromethyl)pyridazin-3(2H)-one]	< 100
N#Cc1ccc(N2CCC3(CCN(C(=O)CCOC[C@@H]4CCCN4c4cn[nH]c(=O)c4C(F)(F)F)C3)CC2)nc1 [Example 103, 6-[2-(3-[[(2S)-1-[6-oxo-5-(trifluoromethyl)-1,6-dihydropyridazin-4-yl]pyrrolidin-2-yl]methoxy]propanoyl)-2,8-diazaspiro [4.5]decan-8-yl]pyridine-3-carbonitrile]	100 to 1000
C[C@@H](CC(=O)N1CCN(c2ccc(C#N)cn2)CC1)OCCOc1cn[nH]c(=O)c1C(F)(F)F (single isomer, unassigned) [Example 538 Isomer B]	< 100
CN(C)C1CCN(c2cccc3c2CN(c2cn[nH]c(=O)c2C(F)(F)F)C3)C1 (centres unmarked) [Example 285, 5-(4-(3-(Dimethylamino)pyrrolidin-1-yl)isoindolin-2-yl)-4-(trifluoromethyl)pyridazin-3(2H)-one]	< 100
N#Cc1cnc(N2CCN(C(=O)c3cccc(OCC4c5ccccc5CN4c4cn[nH]c(=O)c4C(F)(F)F)c3)CC2)nc1 (centres unmarked) [Example 361, 2-(4-(3-((2-(6-Oxo-5-(trifluoromethyl)-1,6-dihydropyridazin-4-yl)isoindolin-1-yl)methoxy)benzoyl)piperazin-1-yl)pyrimidine-5-carbonitrile]	< 100
CC[C@@H](COCCC(=O)N1CCN(c2ncc(C(F)(F)F)cn2)CC1)Oc1cn[nH]c(=O)c1C(F)(F)F [Example 37, 5-[[(2S)-1-(3-Oxo-3-[4-[5-(trifluoromethyl)pyrimidin-2-yl]piperazin-1-yl]propoxy)butan-2-yl]oxy]-4-(trifluoromethyl)-2,3-dihydropyridazin-3-one]	< 100
N#Cc1ccc(N2CCN(C(=O)CCOC[C@H]3c4ccccc4CN3c3cn[nH]c(=O)c3Cl)CC2)nc1 [Example 414, (R)-6-(4-(3-((2-(5-Chloro-6-oxo-1,6-dihydropyridazin-4-yl)isoindolin-1-yl)methoxy)propanoyl)piperazin-1-yl)nicotinonitrile]	100 to 1000
O=C(CCOC[C@H](CO)Nc1cn[nH]c(=O)c1C(F)(F)F)N1CCN(c2ccc(C(F)(F)F)cn2)CC1 [Example 604, 5-[[(2S)-1-Hydroxy-3-(3-oxo-3-[4-[5-(trifluoromethyl)pyridin-2-yl]piperazin-1-yl]propoxy)propan-2-yl]amino]-4-(trifluoromethyl)-2,3-dihydropyridazin-3-one]	< 100
N#Cc1ccc(N2CCN(C(=O)c3cncc(OCC4c5ccccc5CN4c4cn[nH]c(=O)c4C(F)(F)F)c3)CC2)nc1 (centres unmarked) [Example 352, 6-(4-(5-((2-(6-Oxo-5-(trifluoromethyl)-1,6-dihydropyridazin-4-yl)isoindolin-1-yl)methoxy)nicotinoyl)piperazin-1-yl)nicotinonitrile]	< 100
C[C@@H]1C[C@@H](COc2cccc(C(=O)N3CCN(c4ccc(C#N)cn4)CC3)c2)N(c2cn[nH]c(=O)c2C(F)(F)F)C1 [Example 75, 6-[4-[(3-[[(2S,4R)-4-methyl-1-[6-oxo-5-(trifluoromethyl)-1,6-dihydropyridazin-4-yl]pyrrolidin-2-yl]methoxy]phenyl)carbonyl]piperazin-1-yl]pyridine-3-carbonitrile]	< 100
O=C(CCOC[C@H](CCO)Oc1cn[nH]c(=O)c1C(F)(F)F)N1CCN(c2ncc(Cl)cn2)CC1 [Example 705, (S)-5-((1-(3-(4-(5-Chloropyrimidin-2-yl)piperazin-1-yl)-3-oxopropoxy)-4-hydroxybutan-2-yl)oxy)-4-(trifluoromethyl)pyridazin-3(2H)-one]	100 to 1000
CN(CCC(=O)N1CCN(c2ccc(C#N)cn2)CC1)C[C@@H]1CCCN1c1cn[nH]c(=O)c1C(F)(F)F [Example 136, (S)-6-(4-(3-(methyl((1-(6-oxo-5-(trifluoromethyl)-1,6-dihydropyridazin-4-yl)pyrrolidin-2-yl)methyl)amino)propanoyl)piperazin-1-yl)nicotinonitrile]	< 100
N#Cc1ccc(N2CCN(C(=O)CCOC[C@@H](Nc3cn[nH]c(=O)c3C(F)(F)F)C3CC3)CC2)nc1 [Example 605, (S)-6-[4-[3-[2-Cyclopropyl-2-[[6-oxo-5-(trifluoromethyl)-1,6-dihydropyridazin-4-yl]amino]ethoxy]propanoyl]piperazin-1-yl]nicotinonitrile]	< 100
C[C@H](COc1cn[nH]c(=O)c1C(F)(F)F)OCCC(=O)N1CCN(c2ncc(C(F)(F)F)cn2)CC1 (single isomer, unassigned) [Example 544 Isomer D]	100 to 1000
